The test can be described thus: Displacement of [3H]vesamicol from VAChT receptor in torpedo electrical organ synaptic vesicle.

`O[C@@H]1C[C@H]2CCCC[C@@H]2C[C@H]1N1CCC(c2ccccc2)CC1` registered an inhibitory constant (Ki) of 0.009 nM. This lies in the picomolar range.

Regarding `O=C(CN1C2CCC1CC(c1ccccc1)C2)c1ccc(F)cc1` (stereo not drawn), the affinity, expressed as Ki, was 3400 nM.

For `O[C@@H]1CCCC[C@H]1N1CCC(c2ccccc2)CC1` (relative stereo) [VESAMICOL], the affinity, expressed as Ki, was 7.6 nM.

Values taken from ChEMBL document CHEMBL1145554, “First CoMFA characterization of vesamicol analogs as ligands for the vesicular acetylcholine transporter” (J Med Chem, 2008).
